According to US12091425B2 (AMGEN INC., priority 2016, dated 2024):

Key:
[1] = tested on: OPM-2 human multiple myeloma cell line; assay: Cell Viability Assay (OPM-2 10 FBS); assay type: cell-based; conditions: OPM-2 cells, CellTiter-Glo
In short: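 OPM-2 myeloma cells, 3000/well in medium with 10% FBS, exposed to serially diluted compounds for 16 h at 37° C./5% CO2. Viability read by CellTiter-Glo luminescence; IC50 from 4-parameter logistic fit.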

[2] = molecular target: T1, Mcl-1/Bim interaction, recombinant human Mcl-1 (171-327) (Homo sapiens, UniProt Q07820); assay: Cell free Mcl-1: Bim Affinity Assay (Mcl-1 HTRF); assay type: binding
T1 construct: made in house
T1 sequence (Q07820 171-327): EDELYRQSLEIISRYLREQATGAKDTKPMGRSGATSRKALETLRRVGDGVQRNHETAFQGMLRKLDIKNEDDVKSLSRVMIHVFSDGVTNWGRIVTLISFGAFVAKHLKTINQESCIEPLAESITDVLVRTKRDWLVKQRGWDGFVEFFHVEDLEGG
In short: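 Biotin-Bim(51-76) peptide, TR-FRET readout, overnight incubation; IC50 from duplicate competition curves, 4-parameter fit.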

[3] = cell free Mcl-1:Bim TR-FRET, recombinant human Mcl-1 (171-327)
[4] = Homo sapiens, OPM-2, 16 h, 16 h
[5] = TR-FRET, 0.1 nM Mcl-1 (171-327), 0.05 nM biotin-Bim (51-76)

| SMILES | IC50 ([1]; 16 h) | IC50 [2, 3] | IC50 [1, 4] | IC50 ([1]; 16 h incubation) | IC50 [2, 5] |
| --- | --- | --- | --- | --- | --- |
| COCCO[C@H]1/C=C/C[C@H](C)[C@H](c2ccccc2)S(=O)(=O)NC(=O)c2ccc3c(c2)N(C[C@@H]2CC[C@H]21)C[C@@]1(CCCc2cc(Cl)ccc21)CO3 (single isomer, unassigned) [Example 671] | 5650 nM | 19.8 nM |  |  |  |
| COC[C@@H](O)C[C@@H]1[C@@H](C)C/C=C/[C@H](O)[C@@H]2CC[C@H]2CN2C[C@@]3(CCCc4cc(Cl)ccc43)COc3ccc(cc32)C(=O)NS1(=O)=O (single isomer, unassigned) [Example 672] | 286 nM | 0.193 nM |  |  |  |
| COC[C@@H](O)C[C@@H]1[C@@H](C)C/C=C/[C@H](O)[C@@H]2CC[C@H]2CN2C[C@@]3(CCCc4cc(Cl)ccc43)COc3ccc(cc32)C(=O)NS1(=O)=O (single isomer, unassigned) [Example 673] | 445 nM | 0.183 nM |  |  |  |
| O=C1NS(=O)(=O)C(c2ccccc2)CC/C=C/[C@H](O)[C@@H]2CC[C@H]2CN2C[C@@]3(CCCc4cc(Cl)ccc43)COc3ccc1cc32 (single isomer, unassigned) [Example 674] | 1090 nM | 8.2 nM |  |  |  |
| O=C1NS(=O)(=O)C(c2ccccc2)CC/C=C/[C@H](O)[C@@H]2CC[C@H]2CN2C[C@@]3(CCCc4cc(Cl)ccc43)COc3ccc1cc32 (single isomer, unassigned) [Example 675] | 480 nM | 0.437 nM |  |  |  |
| CC1C(C2CC2)CC=CC(O)C2CCC2CN2CC3(CCCc4cc(Cl)ccc43)COc3ccc(cc32)C(=O)NS1(=O)=O (single isomer, unassigned) [Example 677] |  | 9.57 nM | 3550 nM |  |  |
| COC[C@@H](O)C[C@@H]1[C@@H](C)C/C=C/[C@H](OC)[C@@H]2CC[C@H]2CN2C[C@@]3(CCCc4cc(Cl)ccc43)COc3ccc(cc32)C(=O)NS1(=O)=O (single isomer, unassigned) [Example 679] | 205 nM | 0.429 nM |  |  |  |
| O=C1NS(=O)(=O)C[C@@H](C2CC2)C/C=C/[C@H](O)[C@@H]2CC[C@H]2CN2C[C@@]3(CCCc4cc(Cl)ccc43)COc3ccc1cc32 (single isomer, unassigned) [Example 683] | 2090 nM | 2.31 nM |  |  |  |
| CC[C@H]1C/C=C/[C@H](O)[C@@H]2CC[C@H]2CN2C[C@@]3(CCCc4cc(Cl)ccc43)COc3ccc(cc32)C(=O)NS(=O)(=O)N1 (single isomer, unassigned) [Example 685] | 7180 nM | 2.66 nM |  |  |  |
| CC[C@H]1C/C=C/[C@H](O)[C@@H]2CC[C@H]2CN2C[C@@]3(CCCc4cc(Cl)ccc43)COc3ccc(cc32)C(=O)NS(=O)(=O)N1 (single isomer, unassigned) [Example 686] | 993 nM | 0.597 nM |  |  |  |
| CO[C@H]1/C=C/C[C@H](C)[C@@H](CC(F)(F)F)S(=O)(=O)NC(=O)c2ccc3c(c2)N(C[C@@H]2CC[C@H]21)C[C@@]1(CCCc2cc(Cl)ccc21)CO3 (single isomer, unassigned) [Example 689] | 836 nM | 2.53 nM |  |  |  |
| O=C1NS(=O)(=O)[C@H](c2ccccn2)CC/C=C/[C@H](O)[C@@H]2CC[C@H]2CN2C[C@@]3(CCCc4cc(Cl)ccc43)COc3ccc1cc32 (single isomer, unassigned) [Example 692] | 1520 nM | 0.6 nM |  |  |  |
| O=C1NS(=O)(=O)[C@H](c2ccccn2)CC/C=C/[C@H](O)[C@@H]2CC[C@H]2CN2C[C@@]3(CCCc4cc(Cl)ccc43)COc3ccc1cc32 (single isomer, unassigned) [Example 693] | 742 nM | 0.235 nM |  |  |  |
| O=C1NS(=O)(=O)C[C@@H]2C[C@@H]2/C=C/[C@H](O)[C@@H]2CC[C@H]2CN2C[C@@]3(CCCc4cc(Cl)ccc43)COc3ccc1cc32 (single isomer, unassigned) [Example 784] | 14200 nM | 2.69 nM |  |  |  |
| O=C1NS(=O)(=O)C[C@@H]2C[C@@H]2/C=C/[C@H](O)[C@@H]2CC[C@H]2CN2C[C@@]3(CCCc4cc(Cl)ccc43)COc3ccc1cc32 (single isomer, unassigned) [Example 785] | 16000 nM | 3.02 nM |  |  |  |
| COCCO[C@H]1/C=C/C[C@@H]2C[C@H]2S(=O)(=O)NC(=O)c2ccc3c(c2)N(C[C@@H]2CC[C@H]21)C[C@@]1(CCCc2cc(Cl)ccc21)CO3 (single isomer, unassigned) [Example 786] | 1480 nM | 1.03 nM |  |  |  |
| O=C1NS(=O)(=O)C2CC2CC=CC(O)C2CCC2CN2CC3(CCCc4cc(Cl)ccc43)COc3ccc1cc32 (single isomer, unassigned) [Example 793] | 536 nM | 0.44 nM |  |  |  |
| O=C1NS(=O)(=O)C2CC2CC=CC(O)C2CCC2CN2CC3(CCCc4cc(Cl)ccc43)COc3ccc1cc32 (single isomer, unassigned) [Example 796] | 195 nM | 0.45 nM |  |  |  |
| CO[C@H]1/C=C/C[C@@H]2C[C@H]2S(=O)(=O)NC(=O)c2ccc3c(c2)N(C[C@@H]2CC[C@H]21)C[C@@]1(CCCc2cc(Cl)ccc21)CO3 (single isomer, unassigned) [Example 803] | 804 nM | 1.06 nM |  |  |  |

| SMILES | IC50 ([1]; 16 h) | IC50 [2, 3] | IC50 [1, 4] | IC50 ([1]; 16 h incubation) | IC50 [2, 5] |
| --- | --- | --- | --- | --- | --- |
| CO[C@H]1/C=C/C[C@H]2C[C@@H]2S(=O)(=O)NC(=O)c2ccc3c(c2)N(C[C@@H]2CC[C@H]21)C[C@@]1(CCCc2cc(Cl)ccc21)CO3 (single isomer, unassigned) [Example 804] | 377 nM | 0.658 nM |  |  |  |
| COCCO[C@H]1/C=C/C[C@H]2C[C@@H]2S(=O)(=O)NC(=O)c2ccc3c(c2)N(C[C@@H]2CC[C@H]21)C[C@@]1(CCCc2cc(Cl)ccc21)CO3 (single isomer, unassigned) [Example 805] | 718 nM | 1.06 nM |  |  |  |
| O=C1NS(=O)(=O)CC/C=C/C[C@H](O)[C@@H]2CC[C@H]2CN2C[C@@]3(CCCc4cc(Cl)ccc43)COc3ccc1cc32 (single isomer, unassigned) [Example 846] |  | 2.18 nM | 2760 nM |  |  |
| O=C1NS(=O)(=O)C/C=C/C2(O)CCOC(C2)C2CCC2CN2CC3(CCCc4cc(Cl)ccc43)COc3ccc1cc32 (single isomer, unassigned) [Example 851] |  | 1 nM | 19700 nM |  |  |
| O=C1NS(=O)(=O)CCOC2CCOC(C2)C2CCC2CN2CC3(CCCc4cc(Cl)ccc43)COc3ccc1cc32 (single isomer, unassigned) [Example 878] |  | 9.46 nM | 7000 nM |  |  |
| CC[C@@H]1CC/C=C\C(=O)[C@@H]2CC[C@H]2CN2C[C@@]3(CCCc4cc(Cl)ccc43)COc3ccc(cc32)C(=O)NS1(=O)=O (single isomer, unassigned) [Example 885] |  | 18.3 nM | 616 nM |  |  |
| O=C1NS(=O)(=O)CCC[C@]2(O)CCO[C@H](C2)[C@@H]2CC[C@H]2CN2C[C@@]3(CCCc4cc(Cl)ccc43)COc3ccc1cc32 (single isomer, unassigned) [Example 901] | 5500 nM | 0.568 nM |  |  |  |
| O=C1NS(=O)(=O)C/C=C/[C@]2(O)CCO[C@@H](C2)[C@@H]2CC[C@H]2CN2C[C@@]3(CCCc4cc(Cl)ccc43)COc3ccc1cc32 (single isomer, unassigned) [Example 918] | 15100 nM | 2.75 nM |  |  |  |
| C[C@@H]1CS(=O)(=O)NC(=O)c2ccc3c(c2)N(C[C@@H]2CC[C@H]2[C@@H]2C[C@H](CCO2)O1)C[C@@]1(CCCc2cc(Cl)ccc21)CO3 (single isomer, unassigned) [Example 921] | 9160 nM | 2.09 nM |  |  |  |
| C[C@@H]1CS(=O)(=O)NC(=O)c2ccc3c(c2)N(C[C@@H]2CC[C@H]2[C@@H]2C[C@H](CCO2)O1)C[C@@]1(CCCc2cc(Cl)ccc21)CO3 (single isomer, unassigned) [Example 922] | 2400 nM | 0.975 nM |  |  |  |
| C[C@H]1/C=C/[C@H](O)[C@@H]2CC[C@H]2CN2C[C@@]3(CCCc4cc(Cl)ccc43)COc3ccc(cc32)C(=O)NS(=O)(=O)[C@@H](C)C1 (single isomer, unassigned) [Example 1021] |  |  |  | 27000 nM | 9.09 nM |
| C[C@@H]1/C=C/[C@H](O)[C@@H]2CC[C@H]2CN2C[C@@]3(CCCc4cc(Cl)ccc43)COc3ccc(cc32)C(=O)NS(=O)(=O)[C@@H](C)C1 (single isomer, unassigned) [Example 1022] |  |  |  | 22700 nM | 23.5 nM |
| CC[C@@H]1C[C@@H](C)/C=C/[C@H](O)[C@@H]2CC[C@H]2CN2C[C@@]3(CCCc4cc(Cl)ccc43)COc3ccc(cc32)C(=O)NS1(=O)=O (single isomer, unassigned) [Example 1023] |  |  |  | 501 nM | 0.307 nM |
| CC[C@@H]1C[C@H](C)/C=C/[C@H](O)[C@@H]2CC[C@H]2CN2C[C@@]3(CCCc4cc(Cl)ccc43)COc3ccc(cc32)C(=O)NS1(=O)=O (single isomer, unassigned) [Example 1024] |  |  |  | 414 nM | 0.296 nM |
| CC[C@@H]1C[C@@H](C)/C=C/[C@H](OCCOC)[C@@H]2CC[C@H]2CN2C[C@@]3(CCCc4cc(Cl)ccc43)COc3ccc(cc32)C(=O)NS1(=O)=O (single isomer, unassigned) [Example 1025] |  |  |  | 141 nM | 0.411 nM |
| CC[C@@H]1C[C@H](C)/C=C/[C@H](OCCN2CCOCC2)[C@@H]2CC[C@H]2CN2C[C@@]3(CCCc4cc(Cl)ccc43)COc3ccc(cc32)C(=O)NS1(=O)=O (single isomer, unassigned) [Example 1027] |  |  |  | 218 nM | 0.945 nM |
| O=C1NS(=O)(=O)[C@@H]2COC[C@H]2C/C=C/[C@H](O)[C@@H]2CC[C@H]2CN2C[C@@]3(CCCc4cc(Cl)ccc43)COc3ccc1cc32 (single isomer, unassigned) [Example 1030] |  |  |  | 271 nM | 0.195 nM |
| CO[C@H]1/C=C/C[C@@H]2COC[C@H]2S(=O)(=O)NC(=O)c2ccc3c(c2)N(C[C@@H]2CC[C@H]21)C[C@@]1(CCCc2cc(Cl)ccc21)CO3 (single isomer, unassigned) [Example 1032] |  |  |  | 575 nM | 0.422 nM |
